How the values were obtained:
[1] = clinical studies; cited from earlier work
[2] = test system: saponin-semipermeabilized skeletal muscle fibres of the rat; experiment: Isometric force of saponin-semipermeabilized (skinned) skeletal muscle fibres, indirect measure of Ca2+ release from the SR; conditions: for Ca2+ sensitivity of the contractile apparatus / increase of maximum force development compared with the control: slow skeletal musculature (M. soleus); for Ca2+ sensitivity of the contractile apparatus: 5-10 μM; for increase of maximum force development compared with the control: equimolar concentration 5-10 μM
Experimental: The aim of this test procedure was therefore to examine what functional significance these sequences—in the form of synthetic peptides—have compared with the whole protein for the regulation of the Ca^2+ release from the SR. The Ca^2+ release was measured indirectly on saponin-semipermeabilized skeletal muscle fibres of the rat over an isometric force gradient. The measurement of the isometric force before and after addition of S100A1 peptide/protein served as a control.

[3] = test system: neonatal rat cardiomyocytes; experiment: Intracellular Ca2+ transients in cultivated neonatal rat cardiomyocytes after co-cultivation with recombinant S100A1; type: cell-based; conditions: S100A1 1 μM to 10 μM at two-day intervals, 7 days
Experimental: Neonatal rat hearts were removed from 3-day-old rats, ventricles separated from the atria and stored coarse-ground on ice in ADS buffer (6.8 g NaCl, 4.76 g HEPES, 0.12 g NaH2PO4, 1 g glucose, 0.4 g KCl, 0.1 g MgSO4 and 1000 ml H2O). In a bioreactor (Wheaton® container), the cells were then separated from the tissue assembly by means of collagenase digestion (108 U/mg/ml collagenase, Worthington, USA), and the released cells separated over a density gradient (Percoll, Pharmacia®) by centrifugation. The cardiomyocyte fraction was resuspended in cell culture medium (DMEM+10% newborn calf serum) and plated in a density of approx. 100,000 cardiomyocytes per well on 24-well cell culture plates. After 24 hours culture at 37° C. and 5% CO2, recombinant S100A1 was added to the cell culture medium at two-day intervals in concentrations of 1 μM to 10 μM. […] The intracellular Ca^2+ transients were then detected and quantified by means of inverse fluorescence microscopy (Olympus OSP 3®) under both rest conditions and electrical field stimulation (PHYWE®-bioelectrical measurement unit; frequencies of 30-300 bpm). […] The changes in the Ca^2+ concentration per time unit were measured as a quotient from the time until the signal maximum and the signal amplitude (+dc/dt) were reached or as a quotient of the time until the half amplitude and the signal amplitude (−dc/dt) were reached. […]

[4] = test system: microtubuli and intermediate filaments; conditions: biochemical reconstitutive assays; cited from earlier work
protein kinase C = conditions: cited from earlier work

COc1ccc(-c2nc3ccc(C4=NNC(=O)CC4C)cc3[nH]2)cc1 (stereo not shown) [pimobendan]
improvement of the heart function compared with placebo [1]: no significant improvement of the heart function

combination of the three peptides: Combination of the N-terminal, hinge region and C-terminal synthetic S100A1 peptides (peptide 1 GSELETAMETLINVF; peptide 2 LSGFLDAQKDVDA; peptide 3 YVVLVAALTVA)
Ca2+ sensitivity of the contractile apparatus [2]: unchanged
increase of maximum force development compared with the control [2]: 49%±6%

combination of “C-terminal” peptide and the “hinge region”: Combination of the C-terminal and hinge region synthetic S100A1 peptides (peptide 1 LSGFLDAQKDVDA; peptide 2 YVVLVAALTVA)
increase of isometric force development ([2]; before versus after addition of peptide): 15%±4%

recombinant S100A1: Human recombinant Ca2+-binding protein S100A1 (SEQ ID NO: 2) prepared in genetically modified E. coli
Ca2+ sensitivity of the contractile apparatus [2]: unchanged
increase of maximum force development compared with the control [2]: 52%±7%
rise in the Ca2+ concentration per time unit in the systole (+dc/dt), increase in comparison with the control cell population ([3]; p<0.0002): 3 times
drop in the Ca2+ concentration per time unit in the diastole (-dc/dt), acceleration in comparison with the control cell population ([3]; p<0.0003): 2.2 times
polymerization of microtubuli and of intermediate filaments [4]: inhibition
effect on protein kinase C (protein kinase C): inhibition

— US7588756B1, “Treatment of cardiac power failure” (priority 1999, dated 2009)
